Data from the Biogen ADME set (Fang et al. 2023).
In brackets after ≈: the same amount, converted by molar mass.

Settings: for aqueous solubility: pH 6.8

MDR1-MDCK efflux ratio	intrinsic clearance, human liver microsomes	intrinsic clearance, rat liver microsomes	aqueous solubility	fraction unbound, human plasma	fraction unbound, rat plasma	Structure (SMILES)
0.771	≤ 4.74 mL/min/kg	≤ 10.7 mL/min/kg	36 µg/mL (≈ 147 µM)	–	–	Cc1cnn(Cc2nc(Cn3cccn3)no2)c1
28	76.7 mL/min/kg	557 mL/min/kg	4 µg/mL (≈ 9.1 µM)	–	–	C=CCNC(=O)C1(Cc2ccc(-c3ccccc3)cc2)CCN(C(=O)c2cccnc2)CC1
1.2	≤ 4.74 mL/min/kg	≤ 10.7 mL/min/kg	61.5 µg/mL (≈ 290 µM)	–	–	CC(C)CC(=O)NCC(=O)N1CCCC1
1.49	18.6 mL/min/kg	506 mL/min/kg	50 µg/mL (≈ 162 µM)	–	–	O=C(CCCc1cc(Cl)sc1Cl)N1CC[C@H](O)C1
0.85	≤ 4.74 mL/min/kg	35.2 mL/min/kg	49.1 µg/mL (≈ 157 µM)	–	–	CCC1(O)CN(c2ncnc3c2c(Br)nn3C)C1
0.671	23.1 mL/min/kg	75.4 mL/min/kg	31.8 µg/mL (≈ 135 µM)	–	–	Cc1ccc(-c2cnc(N)cn2)c2cccnc12
5.8	7.04 mL/min/kg	43.5 mL/min/kg	53 µg/mL (≈ 143 µM)	–	–	COc1cc2cc(N)c(C3CCN(C(=O)C(C)(C)C)CC3)nc2cc1OC
21	35 mL/min/kg	103 mL/min/kg	40 µg/mL (≈ 103 µM)	0.0905	0.0702	Nc1ncnc2c1c(-c1ccc(Oc3ccccc3)cc1)nn2[C@@H]1CCCNC1
23.7	13 mL/min/kg	355 mL/min/kg	42.1 µg/mL (≈ 130 µM)	–	–	Cc1ccsc1CN(C)C(=O)[C@@H]1CCCN1C(=O)NC(C)C
–	18.1 mL/min/kg	394 mL/min/kg	–	–	–	Cc1nc(-c2cccc(C(N)=O)c2)sc1-c1ccc(F)cc1
–	224 mL/min/kg	1180 mL/min/kg	–	–	–	COc1ccccc1-n1ncc2c(=O)[nH]c(SC(C)c3ccccc3)nc21 (stereo unspecified)
3.8	≤ 4.74 mL/min/kg	62.9 mL/min/kg	–	–	–	Cc1ccc(NC(=O)CN2C(=O)CN(C)C2=O)cc1C
1.82	216 mL/min/kg	1520 mL/min/kg	29 µg/mL	–	–	CN(CCOCCOc1ccccc1-c1ccccc1)Cc1ccccc1.O=C(O)C(=O)O
15.9	≤ 4.74 mL/min/kg	≤ 10.7 mL/min/kg	48.1 µg/mL (≈ 172 µM)	–	–	Cc1cccnc1NC(=O)CCn1cnc2ccccc21
4.06	9.23 mL/min/kg	84.8 mL/min/kg	21.4 µg/mL (≈ 72.3 µM)	–	–	O=C(CCn1nnc2ccccc2c1=O)Nc1ccncc1
0.632	≤ 4.74 mL/min/kg	38.7 mL/min/kg	49.2 µg/mL (≈ 183 µM)	–	–	CCS(=O)(=O)Cc1ccn(-c2cccc(F)c2)n1
15.4	8.35 mL/min/kg	69.8 mL/min/kg	29.2 µg/mL (≈ 70.9 µM)	–	–	CC(C)(O)C(=O)N1CCC(c2ccc3c(NCc4ccccc4F)n[nH]c3n2)CC1
1.76	45.7 mL/min/kg	621 mL/min/kg	–	–	–	Cc1ccc(C#N)c(NCc2ccccc2-n2ccnc2)n1
–	86.2 mL/min/kg	462 mL/min/kg	44.9 µg/mL (≈ 160 µM)	–	–	c1ccc2[nH]c(SCc3cn4ccccc4n3)nc2c1

MDR1-MDCK efflux ratio	intrinsic clearance, human liver microsomes	intrinsic clearance, rat liver microsomes	aqueous solubility	fraction unbound, human plasma	fraction unbound, rat plasma	Structure (SMILES)
8.25	9.61 mL/min/kg	722 mL/min/kg	–	–	–	CC(=O)NCCCC(=O)Nc1ccc(Oc2ccccc2Cl)cc1
0.577	40.5 mL/min/kg	484 mL/min/kg	–	–	–	CCc1c(C(=O)NCCc2ccc(N3CCCCC3)cc2)[nH]c2ccc(Cl)cc12
1.3	14.6 mL/min/kg	397 mL/min/kg	50.1 µg/mL (≈ 187 µM)	–	–	Cc1nnc(-c2ccccc2-c2ccc(O)cc2)s1
–	≤ 4.74 mL/min/kg	≤ 10.7 mL/min/kg	59.4 µg/mL (≈ 219 µM)	–	–	CC(=O)NCc1ncc(-c2ccccc2C(=O)O)cn1
16.2	23.9 mL/min/kg	54.7 mL/min/kg	81.3 µg/mL (≈ 240 µM)	–	–	CCN(C(=O)N1CCC(CC(=O)N2CCN(C)CC2)CC1)C(C)C
2.28	7.52 mL/min/kg	214 mL/min/kg	33.6 µg/mL (≈ 119 µM)	–	–	Cc1ccc(Cn2nccc2NC(=O)c2ccncc2)o1
2.52	15.2 mL/min/kg	154 mL/min/kg	68.8 µg/mL (≈ 206 µM)	–	–	CC1CCC(NC(=O)c2oc3ccccc3c2CS(C)=O)CC1 (stereo unspecified)
0.97	–	–	0.5 µg/mL (≈ 1.17 µM)	–	–	Cc1oc2cc(OCC(=O)Nc3nccs3)ccc2c(=O)c1Oc1ccc(F)cc1
0.658	63.2 mL/min/kg	3020 mL/min/kg	15.7 µg/mL (≈ 48 µM)	–	–	c1ccc(CO[C@@H]2CCC[C@H]2n2cc(-c3nccs3)nn2)cc1
32.5	≤ 4.74 mL/min/kg	15.7 mL/min/kg	36.5 µg/mL (≈ 116 µM)	–	–	C#CCNC(=O)CN1CCCN(C(=O)c2cccc(C)n2)CC1
–	133 mL/min/kg	122 mL/min/kg	–	–	–	COc1cc(Nc2ncc(F)c(Nc3ccc4c(n3)NC(=O)C(C)(C)O4)n2)cc(OC)c1OC
–	≤ 4.74 mL/min/kg	21.8 mL/min/kg	–	–	–	CNC(=O)Cc1noc(-c2ccc3ncccc3c2)n1
–	–	–	37.5 µg/mL (≈ 115 µM)	–	–	COc1ccc(-c2csc(CC(N)=O)n2)cc1Br
–	27.9 mL/min/kg	338 mL/min/kg	29.5 µg/mL (≈ 114 µM)	–	–	Clc1ccc2[nH]c(COc3ccccc3)nc2c1
–	101 mL/min/kg	943 mL/min/kg	2.15 µg/mL (≈ 6.73 µM)	–	–	CCc1nc2ccc(C(=O)NCc3ccccc3)cc2nc1CC
2.78	≤ 4.74 mL/min/kg	19.9 mL/min/kg	–	–	–	Cn1cc(CN2CCc3nc4ccccc4c(=O)n3CC2)cn1
2.13	134 mL/min/kg	1990 mL/min/kg	2.7 µg/mL (≈ 6.28 µM)	–	–	CC(=O)N1CCN(c2c(Cl)cccc2NC(=O)COc2ccc(C(C)C)cc2)CC1
0.889	24.7 mL/min/kg	694 mL/min/kg	14 µg/mL (≈ 47.9 µM)	–	–	OC[C@@H](c1ccccc1)n1cc(CCc2ccccc2)nn1
–	32.1 mL/min/kg	454 mL/min/kg	71.7 µg/mL (≈ 166 µM)	–	–	CC(c1ccccc1)N1CC(C(=O)N2CCC(n3c(=O)[nH]c4ccccc43)CC2)CC1=O (stereo unspecified)

MDR1-MDCK efflux ratio	intrinsic clearance, human liver microsomes	intrinsic clearance, rat liver microsomes	aqueous solubility	fraction unbound, human plasma	fraction unbound, rat plasma	Structure (SMILES)
0.719	26.9 mL/min/kg	142 mL/min/kg	–	–	–	C#CCNC(=O)Cc1coc(-c2ccccc2)n1
0.618	16 mL/min/kg	376 mL/min/kg	4.97 µg/mL (≈ 18.9 µM)	–	–	c1ccc(-n2ncc3c(-n4ccnc4)ncnc32)cc1
2.76	≤ 4.74 mL/min/kg	126 mL/min/kg	62 µg/mL (≈ 180 µM)	–	–	Cn1cc(C2CCN(CC(=O)N3CCc4sccc4C3)CC2)cn1
8.19	≤ 4.74 mL/min/kg	31.2 mL/min/kg	51.4 µg/mL (≈ 109 µM)	–	–	Cc1sc(C)c(C(=O)NC2(c3ccc(C(=O)O)cc3)CC2)c1Cc1ccc(C(F)(F)F)cc1
6.32	≤ 4.74 mL/min/kg	425 mL/min/kg	–	–	–	COc1cccc(C)c1C(=O)N(C)Cc1ncc[nH]1
–	31.7 mL/min/kg	725 mL/min/kg	–	–	–	CCN1CCC(Oc2ncnc3c2c(C)c(C)n3C2CCCCC2)CC1
–	8.14 mL/min/kg	155 mL/min/kg	–	–	–	CCCc1cnc(C)nc1N(C)CCC(C)(C)O
2	118 mL/min/kg	464 mL/min/kg	17.1 µg/mL (≈ 46.4 µM)	–	–	O=C(NC1CCCC1)N1CCN(c2nccn3nc4c(c23)CCCC4)CC1
–	–	–	0.73 µg/mL (≈ 2.47 µM)	–	–	N=C1/C(=C\c2ccco2)C(=O)N=C2Sc3ccccc3N12
1.21	13.7 mL/min/kg	139 mL/min/kg	–	–	–	CCc1nnc(Sc2nc3cc(C)nn3c3ccccc23)[nH]1
0.618	21.6 mL/min/kg	49.2 mL/min/kg	32.2 µg/mL (≈ 101 µM)	–	–	O=C(CCc1cccs1)Nc1ccc(N2CCOCC2)cn1
–	47.7 mL/min/kg	1310 mL/min/kg	–	–	–	Nc1ccccc1-c1nc(C2CCCCCC2)no1
2.26	–	–	0.81 µg/mL (≈ 1.84 µM)	–	–	COc1ccccc1-n1cc2c(c1-c1ccccc1Br)c(=O)n(C)c(=O)n2C
0.465	66.2 mL/min/kg	1140 mL/min/kg	–	–	–	Cc1ccc(CCC(=O)Nc2nccc3sccc23)o1
1.18	68 mL/min/kg	507 mL/min/kg	26.4 µg/mL (≈ 81.7 µM)	–	–	Cc1cc(C)c(-n2cccn2)c(-c2cn(C[C@@H]3CCCO3)nn2)c1
0.578	148 mL/min/kg	4590 mL/min/kg	–	–	–	COCCc1nsc(Oc2ccc(C)cc2Br)n1
29.3	≤ 4.74 mL/min/kg	79.8 mL/min/kg	–	–	–	Cc1ccc(-c2ccc(N(C)CCO)nn2)c(-n2cccn2)c1
5.49	113 mL/min/kg	1870 mL/min/kg	–	–	–	CCCCOc1nc(N)c2c(n1)N(Cc1cccc(CN3CCCC3)c1)CC(=O)N2

Structure (SMILES)	MDR1-MDCK efflux ratio	intrinsic clearance, human liver microsomes	intrinsic clearance, rat liver microsomes	aqueous solubility	fraction unbound, human plasma	fraction unbound, rat plasma
C[C@@H](CN1CCC(n2c(=O)[nH]c3cc(Br)ccc32)CC1)NC(=O)[C@@H]1C[C@H]1c1ccccc1	–	–	574 mL/min/kg	–	–	–
